Measured values taken from patent publication US8697697B2, “Pyrazole derivatives as ERK inhibitors” (Kinentia Biosciences LLC, priority 2011, dated 2014).
Where a name gives a salt, the structure may show the parent alone. Each block holds one compound with its values, some of them ahead of it.

What was measured:
[1] = system: MMP-1 expression in skin fibroblasts; test: MMP-1 expression in skin fibroblasts (Western blot); format: cell-based, human
Experimental: (§1) Fibroblasts were plated on day zero and allowed to attach. One day later, the cells were washed and then treated with control culture medium with or without test compound. Cells were harvested and counted on day-3. The culture medium was then assayed via Western blot analysis to determine expression levels of MMP-1.

human skin fibroblasts = test: Skin fibroblast proliferation; format: cell-based; conditions: at higher concentrations
Experimental: as §1

ERK-2 kinase = ERK-2 kinase (Homo sapiens, UniProt P28482); test: Assay against ERK-2 (33-P ATP, myelin basic protein substrate); format: biochemical; conditions: non-labeled ATP 1 μM, 22° C.
Chain of ERK-2 kinase (P28482 whole entry): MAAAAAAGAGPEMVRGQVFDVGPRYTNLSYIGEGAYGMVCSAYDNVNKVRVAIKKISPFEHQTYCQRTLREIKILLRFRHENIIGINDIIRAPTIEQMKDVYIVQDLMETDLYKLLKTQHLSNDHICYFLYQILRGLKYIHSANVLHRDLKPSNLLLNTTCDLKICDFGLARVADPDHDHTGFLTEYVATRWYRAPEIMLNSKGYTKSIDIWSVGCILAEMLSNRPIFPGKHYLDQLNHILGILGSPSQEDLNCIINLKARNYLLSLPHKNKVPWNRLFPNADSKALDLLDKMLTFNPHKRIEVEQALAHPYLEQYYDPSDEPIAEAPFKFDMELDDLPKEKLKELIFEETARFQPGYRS
Experimental: Compounds of the invention were assayed for ability to inhibit ERK-2 kinase using a 33-P radio-ligand binding assay. 33-P labeled ATP was used as the radio-ligand and myelin basic protein was used as the substrate. A non-labeled ATP concentration of 1 μM was used. Plates were incubated at 22° C. before isolation and radioactivity determination by scintillation counting. The IC50 values (concentration causing a half-maximal inhibition) and Hill coefficients (nH) were determined by non-linear regression analysis of competition curves generated with 10 data points using Hill equation curve fitting.

human keratinocytes = test: Keratinocyte proliferation assay; format: cell-based
Experimental: Compounds of the Invention were assayed for their ability to inhibit the proliferation of human keratinocytes. Namely, keratinocytes were plated on day zero and allowed to attach. One day later, the cells were washed and then treated with control culture medium with or without the test compound. Cells were harvested and counted on day-2. Value for the time-zero control was determined (mean and standard deviation based on triplicate experiments with n=9 data points). The untreated control value at day 2 was then determined (mean and standard deviation based on triplicate experiments with n=12 data points). All of the values from treated samples were compared to the control values and are expressed as the change from control±the standard deviation based on the three experiments.

IC50 (ERK-2 kinase): 1.43 µM
SMILES: Cl.Clc1cccc(-c2cn[nH]c2-c2c[nH]c3ncccc23)c1 [Example 1, 3-[4-(3-Chlorophenyl)-2H-pyrazol-3-yl]-1H-pyrrolo[2,3-b]pyridine Hydrochloride]
MMP-1 expression ([1]; 5 μg/mL, culture medium, day-3, Western blot): significantly inhibited | collagenase (MMP-1) production ([1]; at higher concentrations, Western blot): significant reduction | effect on fibroblast proliferation (human skin fibroblasts): minimal effect | GI50 (human keratinocytes; calculated from Table 2 data, read-out: GI50 (inhibition of keratinocyte proliferation)): 4.36 µM | inhibition at 0.03 µM (human keratinocytes; test concentration 0.03 μM, cells counted on day-2, change from control): -20% | inhibition at 0.15 µM (human keratinocytes; test concentration 0.15 μM, cells counted on day-2, change from control): -13% | inhibition at 0.3 µM (human keratinocytes; test concentration 0.30 μM, cells counted on day-2, change from control): -6% | inhibition at 1.51 µM (human keratinocytes; test concentration 1.51 μM, cells counted on day-2, change from control): 8% | inhibition at 3.02 µM (human keratinocytes; test concentration 3.02 μM, cells counted on day-2, change from control): 21% | inhibition at 6.04 µM (human keratinocytes; test concentration 6.04 μM, cells counted on day-2, change from control): 72% | inhibition at 15.1 µM (human keratinocytes; test concentration 15.1 μM, cells counted on day-2, change from control): 118%

IC50 (ERK-2 kinase): 9.86 µM
SMILES: c1ccc(-c2cn[nH]c2-c2c[nH]c3ncccc23)cc1 [Example 2, 3-[4-Phenyl-2H-pyrazol-3-yl]-1H-pyrrolo[2,3-b]pyridine Hydrochloride]

IC50 (ERK-2 kinase): 2.23 µM
SMILES: Clc1cccc(-c2cn[nH]c2-c2c[nH]c3nc(NCc4ccccc4)ccc23)c1 [Example 3, Benzyl-{3-[4-(3-chlorophenyl)-2H-pyrazol-3-yl]-1H-pyrrolo[2,3-b]pyridin-6-yl}amine Dihydrochloride]

IC50 (ERK-2 kinase): 11.3 µM
SMILES: c1ccc(CNc2ccc3c(-c4[nH]ncc4-c4ccccc4)c[nH]c3n2)cc1 [Example 4, Benzyl-[3-(4-phenyl-2H-pyrazol-3-yl)-1H-pyrrolo[2,3-b]pyridin-6-yl]amine]
